This assay concerns the target Delta-type opioid receptor (Homo sapiens, UniProt P41143).

Where a SMILES comes first, the peptide text is derived from it.

Sequence of Delta-type opioid receptor (P41143 whole entry): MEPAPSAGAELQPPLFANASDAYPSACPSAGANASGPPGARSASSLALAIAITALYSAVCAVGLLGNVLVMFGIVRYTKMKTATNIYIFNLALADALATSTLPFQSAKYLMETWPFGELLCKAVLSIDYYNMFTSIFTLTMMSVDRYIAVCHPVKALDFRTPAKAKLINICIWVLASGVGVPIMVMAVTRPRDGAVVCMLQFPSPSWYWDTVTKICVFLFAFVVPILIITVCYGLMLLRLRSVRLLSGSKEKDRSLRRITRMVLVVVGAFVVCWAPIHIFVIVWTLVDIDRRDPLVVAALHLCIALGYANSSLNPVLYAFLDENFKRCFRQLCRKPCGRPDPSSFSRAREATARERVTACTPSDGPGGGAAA

What is called Ki is a measure of affinity in units of concentration, obtained from inhibition or displacement. A low value points to higher affinity. In the case of `Cc1cc(O)cc(C)c1C[C@@H](C(=O)N1Cc2ccccc2C[C@H]1C(N)=O)N(C)C`, the Ki turned out to be 2.5 nM.

In turn, `Cc1cc(O)cc(C)c1C[C@H](N)C(=O)N1Cc2ccccc2C[C@H]1C(=O)O` [(S)-2-((S)-2-amino-3-(4-hydroxy-2,6-dimethylphenyl)propanoyl)-1,2,3,4-tetrahydroisoquinoline-3-carboxylic acid] (HELM PEPTIDE1{[Cc1cc(O)cc(C)c1C[C@H](N)C(=O)[*:2]].[Tic]}$$$$V2.0) had a Ki of 13.1 nM.

Turning to `Cc1cc(O)cc(C)c1C[C@H](N)C(=O)N1Cc2ccccc2C[C@H]1C(N)=O` [H-Dmt-Tic-NH2] (HELM PEPTIDE1{[Cc1cc(O)cc(C)c1C[C@H](N)C(=O)[*:2]].[Tic].[am]}$$$$V2.0), the Ki came out at 9.41 nM.

The molecule `CCO[C@@]12Cc3c([nH]c4ccccc34)[C@]3(C)Oc4c(O)ccc5c4C31CCN(CC1CC1)C2C5` (stereo partly specified) [HS378] registered an inhibitory constant (Ki) of 0.4 nM.

The molecule `C=CCN1CCC23c4c5ccc(O)c4OC2c2[nH]c4ccccc4c2C[C@@]3(OCC)C1C5` (stereo partly specified) [HS414] returned an inhibition constant Ki of 2.1 nM.

`CCO[C@@]12Cc3c([nH]c4ccccc34)C3Oc4c(O)ccc5c4C31CCN(CC1CC1)C2C5` (stereo partly specified) [HS464] displayed a Ki of 0.11 nM.

`CCO[C@@]12Cc3c(oc4ccccc34)C3Oc4c(O)ccc5c4C31CCN(CC1CC1)C2C5` (stereo partly specified) [HS510A] registered a Ki of 0.12 nM.

Turning to `C=CCN1CCC23c4c5ccc(O)c4OC2c2c(c4ccccc4n2C)C[C@@]3(OC)C1C5` (stereo partly specified) [HS531], affinity was put at a Ki of 0.42 nM.

As to `COc1c(O)cc2c3c1O[C@@]1(C)c4oc5ccccc5c4C[C@@]4(O)C(C2)N(CC2CC2)CCC314` (stereo partly specified) [NSC_0], affinity was put at a Ki of 0.22 nM.

As for `C=CCN(CC=C)[C@@H](Cc1ccc(O)cc1)C(=O)NC(C)(C)C(=O)NC(C)(C)C(=O)N[C@@H](Cc1ccccc1)C(=O)N[C@@H](CC(C)C)C(=O)O` [NSC_107691] (HELM PEPTIDE1{[C=CCN(CC=C)[C@@H](Cc1ccc(O)cc1)C(=O)[*:2]].[Aib].[Aib].F.L}$$$$V2.0), the Ki is 434 nM.

In turn, `N[C@@H](Cc1ccc(O)cc1)C(=O)N1Cc2ccccc2C[C@H]1C(=O)N[C@@H](Cc1ccccc1)C(=O)N[C@@H](Cc1ccccc1)C(=O)O` [TIPP] (HELM PEPTIDE1{Y.[Tic].F.F}$$$$V2.0) had a Ki of 2.9 nM.
